# Columns and labels:
# [1] = test system: primary human osteoclast (OC) precursors; assay: Osteoclast differentiation assay (TRAP staining); format: cell-based
# Protocol: Osteoclast differentiation assays. Primary human osteoclast (OC) precursors (Cambrex) were seeded at 10,000 cells/well (50,000 cells/ml) in osteoclast precursor growth medium (Cambrex). The cells were cultured for 7 days in the presence of either M-CSF (33 ng/ml), M-CSF (33 ng/ml) and RANKL (33 ng/ml), or in the presence of both cytokines and different concentrations of the MetAP-2 inhibitor. OC differentiation was determined by staining for the OC marker TRAP, using a leukocyte acid phosphatase kit (Sigma). Briefly, after 7 days in culture, the cells were rinsed once with PBS, fixed with 37% formaldehyde in acetone-citrate buffer for 1 min, and stained for development of red color according to the manufacturer's instructions.
# The instant invention features such an inhibitor. In order to investigate the activity of the MetAP-2 inhibitor on osteoclast (OC) differentiation and bone resorption in vitro, yet another cell type critically associated with R^A pathogenesis in an in vitro osteoclastogenesis model was utilized. Primary human OC precursors were cultured for 7 days in the presence of M-CSF and RANKL, and vehicle or increasing concentrations of the MetAP-2 inhibitor.
# PG-PS-induced arthritis [2] = assay: Clinical (histopathological) assessment of PG-PS arthritis, joint histology score; format: in vivo, rat; settings: for Total arthritis score / Bone Resorption score / Cartilage erosion score / Cell infiltration score / Pannus formation score: PG-PS arthritis; for Bone Resorption score / Cartilage erosion score / Cell infiltration score / Pannus formation score: score 0-4
# Protocol: Clinical assessment of PG-PS arthritis. The histopathological evaluation was performed on the left and right hind joints of randomly selected animals from each study group by an independent histopathologist without knowledge of specific interventions. After completion of the study, the left and right hind ankles were removed, fixed in 10% buffered formalin, decalcified in 5% formic acid, paraffin-embedded, sectioned, and H&E stained for histological evaluation. A joint histology scoring system which grades the severity of 4 histopathological processes (cell infiltration, pannus formation, cartilage erosion, bone resorption), was used to quantify hind joint involvement in the PG-PS arthritis model (36). Dependent on the assigned score for each parameter (0=normal, 1=minimal, 2=mild, 3=moderate, 4=marked), the maximum total score per ankle is 16, and 32 per animal.
# It was investigated whether the protective activity of the MetAP-2 inhibitor in this animal model of arthritis, which is characterized by aggressive synovitis, extensive pannus formation, cartilage degradation and focal bone erosion, was mediated through regression in the severity of all clinical indices tested, or whether this activity was targeting specific pathogenic processes.
# A joint histology scoring system which grades the severity of 4 histopathological processes (cell infiltration, pannus formation, cartilage erosion, bone resorption) was used (O'Byrne (1991) Agents and Actions 134:239-241).
# COMP = assay: Serum COMP ELISA in rat PG-PS arthritis model; format: in vivo; settings: 1, 5 and 10 mg/kg p.o. qod, after conclusion of the study
# Protocol: ELISAs for cartilage and bone biochemical turnover markers. The amount of COMP in serum was measured with a competitive enzyme immunoassay (MD Biosciences, Inc) according to the manufacturer's instructions. The detection limit of this ELISA was 0.2 U/L. Helical peptide (amino acids 620 to 633) from the α1 chain of bone-specific human CTX-I was measured either in cell culture supernatants of primary human OC precursors cultured as described above, or in urine with a competitive enzyme immunoassay (Quidel Corporation). The detection limit of this ELISA was 8 μg/L. All CTX-I measurements in urine were corrected for urinary creatinine excretion for each sample to account for potential differences in renal clearance rates among the different study groups. Urinary creatinine was measured with a colorimetric assay (Quidel Corporation).
# The destruction of articular joints is the radiographic hallmark of bone associated disease. Therefore, the activity of the MetAP-2 inhibitor on these destructive processes was assessed by measuring biochemical turnover markers of cartilage erosion and bone resorption. […] The amount of COMP in serum of animals treated therapeutically with the MetAP-2 inhibitor (1, 5, and 10 mg/kg, p.o., qod), or vehicle was measured after conclusion of the study.
# PG-PS-induced arthritis [3] = assay: Microfocal computed tomography of hind joints in rat PG-PS arthritis model; format: in vivo
# Protocol: Microfocal computed tomography. All specimens were scanned on a Scanco Medical AG μCT 40 system. Images were obtained with an isotropic voxel resolution of 20 microns. A matrix size of 1024×1024 with 1000 projections was utilized for all scans. A total of 1836 slices were scanned for each specimen (the number of slices scanned was determined by the length of the scan needed to cover the entire ankle including the distal tibia). The scan time per specimen was approximately 2.6 hours. The images were then volume rendered using a fixed threshold (at two different thresholds: 255 and 140). The total bone volume and BMD were calculated over the same regions of all the specimens. Micro-CT was performed at Scanco USA, Incorporated.
# Finally, the activity of the MetAP-2 inhibitor on the structural preservation of hind joints in rats with established disease was investigated.
# The ankles including the distal tibia were scanned using a Scanco Medical AG μCT 40 system (threshold: 255), and the total bone volume and BMD were calculated over the same regions of all specimens.
# HFLS-R^A = settings: in vitro; cited from earlier work
# HUVEC = settings: in vitro; cited from earlier work
# [4] = PG-PS arthritis, 10 mg/kg, threshold 255
smiles,measurement,setting,value
"CO[C@@H]1[C@H](OC(=O)N[C@@H](C(N)=O)C(C)C)CC[C@]2(CO2)[C@H]1[C@@]1(C)O[C@@H]1CC=C(C)C [MetAP-2 inhibitor, (1-Carbamoyl-2-methyl-propyl)-carbamic acid-(3R,4S,5S,6R)-5-methoxy-4-[(2R,3R)-2-methyl-3-(3-methyl-but-2-enyl)-oxiranyl]-1-oxa-spiro[2,5]oct-6-yl ester]",reversibility of the inhibition of OC differentiation,[1],fully reversible
same,inhibition of OC differentiation,[1]; concentration ≦0.1 nM,no detectable inhibition
same,generation of TRAP-positive mononuclear and multinucleated OC,"[1]; concentrations at ≦1 nM, 7 days with M-CSF and RANKL",almost completely inhibited
same,total arthritic score versus vehicle,"PG-PS-induced arthritis [2]; 1, 5, 10 mg/kg p.o. qod",significantly decreased
same,Total arthritis score,PG-PS-induced arthritis [2]; 1 mg/kg,7.00 ± 0.58^B
same,Bone Resorption score,PG-PS-induced arthritis [2]; 1 mg/kg,2.05 ± 0.2
same,Cartilage erosion score,PG-PS-induced arthritis [2]; 1 mg/kg,1.10 ± 0.12^B
same,Cell infiltration score,PG-PS-induced arthritis [2]; 1 mg/kg,1.85 ± 0.15^A
same,Pannus formation score,PG-PS-induced arthritis [2]; 1 mg/kg,2.00 ± 0.14^A
same,Total arthritis score,PG-PS-induced arthritis [2]; 5 mg/kg,7.60 ± 0.67^B
same,Bone Resorption score,PG-PS-induced arthritis [2]; 5 mg/kg,1.80 ± 0.20^B
same,Cartilage erosion score,PG-PS-induced arthritis [2]; 5 mg/kg,1.25 ± 0.18^B
same,Cell infiltration score,PG-PS-induced arthritis [2]; 5 mg/kg,2.15 ± 0.18^A
same,Pannus formation score,PG-PS-induced arthritis [2]; 5 mg/kg,2.40 ± 0.20^A
same,Total arthritis score,PG-PS-induced arthritis [2]; 10 mg/kg,5.83 ± 0.71^B
same,Bone Resorption score,PG-PS-induced arthritis [2]; 10 mg/kg,2.00 ± 0.16^B
same,Cartilage erosion score,PG-PS-induced arthritis [2]; 10 mg/kg,0.72 ± 0.14^B
same,Cell infiltration score,PG-PS-induced arthritis [2]; 10 mg/kg,1.38 ± 0.31^A
same,Pannus formation score,PG-PS-induced arthritis [2]; 10 mg/kg,1.72 ± 0.20^A
same,systemic level of COMP in serum,COMP,significant decrease
same,"structural integrity of hind joints, three-dimensional micro-CT images","PG-PS-induced arthritis [3]; 10 mg/kg p.o. qod, versus vehicle",protected the structural integrity of the joints and prevented focal bone erosions
same,BMD,PG-PS-induced arthritis [3]; [4],1087 ± 17.44 mg HA/ccm
same,Bone Volume (Vox-BV),PG-PS-induced arthritis [3]; [4],213.8 ± 5.23
same,inhibition of proliferation of HFLS-RA,HFLS-R^A,potently inhibit
same,inhibition of proliferation of HUVEC,HUVEC,potently inhibit

# From patent publication US20070254843A1, “Methods for treating bone associated diseases by the use of methionine aminopeptidase-2 inhibitors” (Praecis Pharmaceuticals Incorporated, priority 2006, published 2007)
